Values of other authors in patent publication US8618345B2 (priority 2006, dated 2013).

Columns and labels:
[1] = ratio to inorganic arsenic (arsenic trioxide)
[2] = in vivo

| Molecule | toxicity compared with that of inorganic arsenic (arsenic trioxide) [1] | demethylation if accumulated in the body [2] | half life of a substance in the body (BHT) [2] [h] |
| --- | --- | --- | --- |
| C[As+](C)(C)CC(=O)[O-] [arsenobetaine] | approximately 1/300 | no demethylation | 3.5 |
| arsenic trioxide [inorganic arsenic, reference compound] | – | – | 28 |
